Patent publication US20260206755A1, “COMPOUNDS AND COMPOSITIONS HAVING KNOCK-DOWN OR BLOOD FEED INHIBITION ACTIVITY AGAINST INSECT PESTS” (priority 2017, published 2026)

Test system: Anopheles stephensi
Experiment: Anopheles stephensi treated well plate contact test: knockdown and mortality
Type: in vivo
Settings: for mortality % 24, with TFNA-AM / mortality % 24, without TFNA-AM: after 24 hours; for mortality % 48, with TFNA-AM / mortality % 48, without TFNA-AM: after 48 hours; for Knock Down, with TFNA-AM / Knock Down, without TFNA-AM: knockdown after 1 hour
Outline: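 Well surfaces coated with ethanol solution of compound at a defined concentration, alone or with 2 ppm TFNA-AM, then dried. Five non-blood-fed 2–5-day-old adult females per well, fed 10% sucrose; knockdown scored at 1 hour, mortality at 24 and 48 hours, replicate means reported.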

[1] = test compound 0.2 ppm plus 2 ppm TFNA-AM
[2] = test compound 2 ppm plus 2 ppm TFNA-AM
[3] = test compound 20 ppm plus 2 ppm TFNA-AM
[4] = test compound 200 ppm plus 2 ppm TFNA-AM

Spinosad
mortality % 24, with TFNA-AM [1]: 80% | mortality % 48, with TFNA-AM [1]: 100% | Knock Down, with TFNA-AM [1]: 100% | mortality % 24, without TFNA-AM (test compound 0.2 ppm): 0% | mortality % 48, without TFNA-AM (test compound 0.2 ppm): 0% | Knock Down, without TFNA-AM (test compound 0.2 ppm): 40% | mortality % 24, with TFNA-AM [2]: 100% | mortality % 48, with TFNA-AM [2]: 100% | Knock Down, with TFNA-AM [2]: 100% | mortality % 24, without TFNA-AM (test compound 2 ppm): 0% | mortality % 48, without TFNA-AM (test compound 2 ppm): 0% | Knock Down, without TFNA-AM (test compound 2 ppm): 40% | mortality % 24, with TFNA-AM [3]: 100% | mortality % 48, with TFNA-AM [3]: 80% | Knock Down, with TFNA-AM [3]: 100% | mortality % 24, without TFNA-AM (test compound 20 ppm): 0% | mortality % 48, without TFNA-AM (test compound 20 ppm): 0% | Knock Down, without TFNA-AM (test compound 20 ppm): 40% | mortality % 24, with TFNA-AM [4]: 100% | mortality % 48, with TFNA-AM [4]: 100% | Knock Down, with TFNA-AM [4]: 100% | mortality % 24, without TFNA-AM (test compound 200 ppm): 40% | mortality % 48, without TFNA-AM (test compound 200 ppm): 40% | Knock Down, without TFNA-AM (test compound 200 ppm, adult females): 60%
